Results from publication PMC7180830, “Scaffold Hopping in Discovery of HIV-1 Non-Nucleoside Reverse Transcriptase Inhibitors: From CH(CN)-DABOs to CH(CN)-DAPYs” (Molecules, 2020).

Experiments:
[1] = system: HIV-1 F227L + V106A mutant strain; experiment: Anti-HIV assay against double mutant F227L + V106A in MT-4 cells; assay type: cell-based; conditions: Human immunodeficiency virus 1, MT4, read-out: EC50 F227L + V106A
Description: (§2) Evaluation of the antiviral activity of the compounds against HIV in MT-4 cells was performed using the MTT assay as previously described [24, 25]. […] Prior to use in our assays, every freshly grown virus stock was the subject of a genotypic analysis. In addition to the genotypic analysis, every stock was subject to a phenotypic analysis using a panel of relevant reference compounds in MT-4 cells. […] Stock solutions (10× final concentration) of test compounds were added in 25 μL volumes to two series of triplicate wells so as to allow simultaneous evaluation of their effects on mock- and HIV-infected cells at the beginning of each experiment. Serial 5-fold dilutions of test compounds were made directly in flat-bottomed 96-well microtiter trays using a Biomek 3000 robot (Beckman instruments, Fullerton, CA). Untreated HIV- and mock-infected cell samples were included as controls. HIV stock (50 μL) at 100–300 CCID50 (50% cell culture infectious doses) and culture medium (final 200 μL volume per well) were added to either the infected or mock-infected wells of the microtiter tray. Mock-infected cells were used to evaluate the effects of test compounds on uninfected cells in order to assess the cytotoxicity of the test compounds. Exponentially growing MT-4 cells were centrifuged for 5 min at 220× g and the supernatant was discarded. The MT-4 cells were resuspended at 6 × 10^5 cells/mL and 50 μL volumes were transferred to the microtiter tray wells. Five days after infection, the viability of mock- and HIV-infected cells was examined spectrophotometrically using the MTT assay. The MTT assay is based on the reduction of yellow colored 3-(4,5-dimethylthiazol-2-yl)-2,5-diphenyltetrazolium bromide (MTT) (Acros Organics, Geel, Belgium) by mitochondrial dehydrogenase activity in metabolically active cells to a blue-purple formazan that can be measured spectrophotometrically. The absorbances were read in an eight-channel computer-controlled photometer (Infinite M1000, Tecan, Männedorf, Switzerland) at two wavelengths (540 and 690 nm). All data were calculated using the median absorbance value of three wells.

[2] = system: HIV-1 L100I mutant strain; experiment: Anti-HIV assay against L100I mutant strain in MT-4 cells; assay type: cell-based; conditions: Human immunodeficiency virus 1, MT4, read-out: EC50 L100I
Description: as §2

[3] = system: HIV-1 K103N + Y181C mutant strain; experiment: Anti-HIV assay against double mutant K103N + Y181C in MT-4 cells; assay type: cell-based; conditions: Human immunodeficiency virus 1, MT4, read-out: EC50 K103N + Y181C
Description: as §2

[4] = target: T1, WT HIV-1 RT (Human immunodeficiency virus type 1 group M subtype B, UniProt P03366); experiment: Reverse transcriptase assay (EnzCheck kit, PicoGreen); assay type: biochemical; conditions: recombinant wild type p66/p51 HIV-1 RT
T1 construct: Recombinant wild type p66/p51 HIV-1 RT; made in house
Description: The RT assay was performed with the EnzCheck Reverse Transcriptase Assay kit (Molecular Probes, Invitrogen), as described by the Manufacturer. The assay is based on the dsDNA quantitation reagent PicoGreen. […] This condition is met in the assay. A poly(rA) template of approximately 350 bases long and an oligo (dT)16 primer are annealed in a molar ratio of 1:1.2 (60 min at room temperature). Then, 52 ng of the RNA/DNA is brought into each well of a 96-well plate in a volume of 20 μL polymerization buffer (60 mM Tris-HCl, 60 mM KCl, 8 mM MgCl2, 13 mM DTT, 100 μM dTTP, pH 8.1). Then, 5 μL of RT enzyme solution, diluted to a suitable concentration in enzyme dilution buffer (50 mM Tris-HCl, 20% glycerol, 2 mM DTT, pH 7.6), is added. The reactions are incubated at 25 °C for 40 min and then stopped by the addition of EDTA (15 mM fc). Heteroduplexes are then detected by addition of PicoGreen. Signals are read using an excitation wavelength of 490 nm and emission detection at 523 nm using a spectrofluorometer (Safire 2, Tecan). To test the activity of compounds against RT, 1 μL of compound in DMSO was added to each well before the addition of RT enzyme solution. Control wells without compound contained the same amount of DMSO. Results are expressed as relative fluorescence, i.e., the fluorescence signal of the reaction mix with compound divided by the signal of the same reaction mix without compound.

[5] = system: HIV-1 Y181C mutant strain; experiment: Anti-HIV assay against Y181C mutant strain in MT-4 cells; assay type: cell-based; conditions: Human immunodeficiency virus 1, MT4, read-out: EC50 Y181C
Description: as §2

[6] = system: HIV-1 K103N mutant strain; experiment: Anti-HIV assay against K103N mutant strain in MT-4 cells; assay type: cell-based; conditions: Human immunodeficiency virus 1, MT4, read-out: EC50 K103N
Description: as §2

[7] = system: HIV-1 E138K mutant strain; experiment: Anti-HIV assay against E138K mutant strain in MT-4 cells; assay type: cell-based; conditions: Human immunodeficiency virus 1, MT4, read-out: EC50 E138K
Description: as §2

[8] = system: HIV-1 IIIB; experiment: Anti-HIV assay against wild-type HIV-1 (IIIB) in MT-4 cells, MTT method; assay type: cell-based; conditions: for SI (selectivity index, ratio CC50/EC50 (WT)): CC50/EC50 WT HIV-1 IIIB, MT-4 cells; for EC50: Human immunodeficiency virus 1, IIIB, MT4, read-out: EC50 HIV-1 IIIB
Description: (§1) Untreated HIV- and mock-infected cell samples were included as controls. […] Five days after infection, the viability of mock- and HIV-infected cells was examined spectrophotometrically using the MTT assay. […] All data were calculated using the median absorbance value of three wells.

[9] = Cytotoxicity in mock-infected MT-4 cells, MTT method; conditions: human, mock-infected (uninfected) MT-4 cells
Description: as §1

[10] = system: MT-4 cells; experiment: as above; conditions: MT-4 cells; relative to RPV CC50
Description: as §1

Row | SMILES | EC50 [1] | melting point | EC50 [2] | EC50 [3] | IC50 [4] | EC50 [5] | EC50 [6] | EC50 [7] | SI (selectivity index, ratio CC50/EC50 (WT)) [8] | EC50 [8] | CC50 at 5 days [9] | fold higher activity than the 3-substituted analogue (A4) ([8]; WT HIV-1 IIIB, relative to A4) | CC50 fold higher than that of RPV [10] | fold increase of antiviral activity compared with A2 ([8]; WT HIV-1 IIIB, relative to A2)
1 | Cc1cnc(Nc2ccc(C#N)cc2)nc1C(C#N)c1ccc(C#N)c(Cl)c1C (centres unmarked) [Compound B5, 4-(4-(cyano-(2-methyl-3-chloro-4-cyanophenyl)methyl)-5-methylpyrimidin-2-ylamino)benzonitrile] | 1660 ± 270 nM | 205.4 to 206.5 °C | 1820 ± 400 nM | > 8580 nM | 70 ± 20 nM | 1020 ± 200 nM | 390 ± 70 nM | 600 ± 100 nM | 370 | 20 ± 8 nM | 8600 ± 2200 nM | – | – | –
2 | COc1cc(C#N)ccc1C(C#N)c1ccnc(Nc2ccc(C#N)cc2)n1 (centres unmarked) [Compound A5, 4-(4-(cyano-(2-methoxy-4-cyanophenyl)methyl)-pyrimidin-2-ylamino)benzonitrile] | ≥ 12400 nM | 189.4 to 190.1 °C | 4720 ± 790 nM | > 25800 nM | – | 1250 ± 580 nM | 680 ± 160 nM | 1630 ± 320 nM | 434 | 59 ± 11 nM | 25800 ± 8700 nM | 200 fold | about 5 fold | –
3 | Cc1cc(C#N)c(Br)cc1C(C#N)c1nc(Nc2ccc(C#N)cc2)ncc1C (centres unmarked) [Compound B6, 4-(4-(cyano-(2-methyl-5-bromo-4-cyanophenyl)methyl)-5-methylpyrimidin-2-ylamino)benzonitrile] | 1520 ± 150 nM | 232.3 to 233.9 °C | 860 ± 190 nM | > 9790 nM | 60 ± 20 nM | 330 ± 100 nM | 60 ± 10 nM | 170 ± 60 nM | 1215 | 8 ± 4 nM | 9800 ± 3500 nM | – | – | –
4 | N#Cc1ccc(Nc2nccc(C(C#N)c3ccc(C#N)cc3F)n2)cc1 (centres unmarked) [Compound A7, 4-(4-(cyano-(2-fluoro-4-cyanophenyl)methyl)-pyrimidin-2-ylamino)benzonitrile] | > 10400 nM | 165.7 to 166.5 °C | > 10400 nM | > 10400 nM | – | > 10400 nM | > 10400 nM | > 10400 nM | 43 | 240 ± 160 nM | 10300 ± 4500 nM | – | – | –
5 | Cc1cc(C#N)ccc1C(C#N)c1ccnc(Nc2ccc(C#N)cc2)n1 (centres unmarked) [Compound A3, 4-(4-(cyano-(2-methyl-4-cyanophenyl)methyl)-pyrimidin-2-ylamino)benzonitrile] | > 10900 nM | 213.5 to 214.6 °C | 5030 ± 550 nM | > 10900 nM | – | 1710 ± 130 nM | 1960 ± 450 nM | 3040 ± 390 nM | 157 | 69 ± 8 nM | 10900 ± 3600 nM | – | – | 17 fold
6 | Cc1cnc(Nc2ccc(C#N)cc2)nc1C(C#N)c1ccc(C#N)cc1F (centres unmarked) [Compound B2, 4-(4-(cyano-(2-fluoro-4-cyanophenyl)methyl)-5 methylpyrimidin-2-ylamino)benzonitrile] | > 20600 nM | – | 3040 ± 1130 nM | > 20600 nM | 220 ± 50 nM | 1590 ± 180 nM | 1070 ± 370 nM | 970 ± 140 nM | – | 40 ± 20 nM | 20600 ± 3600 nM | – | – | –
7 | N#Cc1ccc(Nc2nccc(C(C#N)c3ccc(C#N)cc3C(F)(F)F)n2)cc1 (centres unmarked) [Compound A6, 4-(4-(cyano-(2-trifluoromethyl-4-cyanophenyl)methyl)-pyrimidin-2-ylamino)benzonitrile] | > 6230 nM | 236.7 to 237.5 °C | > 6230 nM | > 6230 nM | – | 2290 ± 20 nM | > 6230 nM | > 6230 nM | 13 | 490 ± 300 nM | 6200 ± 1400 nM | – | – | –
8 | Cc1cnc(Nc2ccc(C#N)cc2)nc1C(C#N)c1ccc(C#N)cc1Cl (centres unmarked) [Compound B3, 4-(4-(cyano-(2-chloro-4-cyanophenyl)methyl)-5-methylpyrimidin-2-ylamino)benzonitrile] | 4040 ± 700 nM | 213.6 to 214.2 °C | 820 ± 150 nM | > 9560 nM | 50 ± 30 nM | 260 ± 20 nM | 80 ± 20 nM | 140 ± 30 nM | 920 | 10 ± 10 nM | 9600 ± 2700 nM | – | – | –
9 | Cc1cc(C(C#N)c2ccnc(Nc3ccc(C#N)cc3)n2)ccc1C#N (centres unmarked) [Compound A2, 4-(4-(cyano-(3-methyl-4-cyanophenyl)methyl)-pyrimidin-2-ylamino)benzonitrile] | > 16100 nM | 223.7 to 224.9 °C | > 16100 nM | > 16100 nM | – | > 16100 nM | > 16100 nM | > 16100 nM | 14 | 1170 ± 340 nM | 16100 ± 3600 nM | – | – | –
10 | N#Cc1ccc(Nc2nccc(C(C#N)c3ccc(C#N)cc3Br)n2)cc1 (centres unmarked) [Compound A9, 4-(4-(cyano-(2-bromo-4-cyanophenyl)methyl)-pyrimidin-2-ylamino)benzonitrile] | > 3350 nM | 223.5 to 224.7 °C | > 3350 nM | > 3350 nM | – | 1880 ± 420 nM | ≥ 1880 nM | 2310 ± 20 nM | 42 | 79 ± 20 nM | 3400 ± 300 nM | – | – | –
11 | Cc1cnc(Nc2ccc(C#N)cc2)nc1C(C#N)c1ccc(C#N)cc1 (centres unmarked) [Compound B1, 4-(4-(cyano-(4-cyanophenyl)methyl)-5-methylpyrimidin-2-ylamino)benzonitrile] | ≥ 59000 nM | 243.1 to 243.7 °C | 8030 ± 4430 nM | > 109000 nM | 1460 ± 90 nM | 7050 ± 960 nM | 3950 ± 220 nM | 4920 ± 300 nM | 356 | 300 ± 110 nM | 109000 ± 80000 nM | – | – | –
12 | Cc1cnc(Nc2ccc(C#N)cc2)nc1C(C#N)c1ccc(C#N)cc1Br (centres unmarked) [Compound B4, 4-(4-(cyano-(2-bromo-4-cyanophenyl)methyl)-5-methylpyrimidin-2-ylamino)benzonitrile] | 2350 ± 180 nM | – | 510 ± 190 nM | > 6620 nM | 60 ± 30 nM | 160 ± 170 nM | 80 ± 30 nM | 110 ± 40 nM | – | 6 ± 1 nM | 6600 ± 1300 nM | – | – | –
